Source: US11634443B2, “Treprostinil prodrugs” (United Therapeutics Corporation, priority 2019, dated 2023)
Read-outs that look alike come from different tables or passages of the source.

Assays:
[1] = Stability and formation of treprostinil in human cryopreserved hepatocytes
[2] = target: T1, prostaglandin E2 (PGE2) receptor 2 (EP2) (Homo sapiens, UniProt P43116); assay: EP2 receptor cAMP assay (agonist mode); type: cell-based; details: Table 24; relative to treprostinil EC50 values; * partial agonists or ambiguous dose-response curves; image character = too high to realistically calculate
T1 construct: expressed in transfected cells; host or cells: HEK293T
Experimental: (§1) Gas Cyclic AMP (cAMP) Assay: In agonist mode testing, cells were seeded in a 384-well plate at an appropriate density and then were treated with compounds and incubated at 37° C. for 20 minutes. The reaction was terminated by sequentially adding sequentially adding trFluor™ Eu-labeled cAMP and trFluor™ 650-labeled anti-cAMP antibody in lysis buffer. […] All testing wells contained 0.1% DMSO in the final concentrations.
(§2) Data in graphs are represented in Mean±SD. Dose-dependent responses were fitted with sigmoidal dose-response curves allowing variable slopes using GraphPad Prism version 6 (Graphpad Prism).

[3] = target: T2, prostaglandin I2 (PGI2) receptor (IP) (Homo sapiens, UniProt P43119); assay: IP receptor cAMP assay (agonist mode); type: cell-based; details: Table 24; relative to treprostinil EC50 values; * partial agonists or ambiguous dose-response curves; image character = too high to realistically calculate
T2 construct: expressed in transfected cells; host or cells: CHO-K1
Experimental: as §1, §2

[4] = Stability and formation of treprostinil in dog cryopreserved hepatocytes
[5] = Stability and formation of treprostinil in rat cryopreserved hepatocytes
PGE2 receptor 1 (EP1) = target: T3, PGE2 receptor 1 (EP1) (Homo sapiens, UniProt P34995); assay: EP1 receptor calcium assay (agonist mode); type: cell-based; details: Table 24; relative to treprostinil EC50 values; * partial agonists or ambiguous dose-response curves; image character = too high to realistically calculate
T3 construct: expressed in transfected cells; host or cells: HEK293T
T3 sequence (P34995 1-402): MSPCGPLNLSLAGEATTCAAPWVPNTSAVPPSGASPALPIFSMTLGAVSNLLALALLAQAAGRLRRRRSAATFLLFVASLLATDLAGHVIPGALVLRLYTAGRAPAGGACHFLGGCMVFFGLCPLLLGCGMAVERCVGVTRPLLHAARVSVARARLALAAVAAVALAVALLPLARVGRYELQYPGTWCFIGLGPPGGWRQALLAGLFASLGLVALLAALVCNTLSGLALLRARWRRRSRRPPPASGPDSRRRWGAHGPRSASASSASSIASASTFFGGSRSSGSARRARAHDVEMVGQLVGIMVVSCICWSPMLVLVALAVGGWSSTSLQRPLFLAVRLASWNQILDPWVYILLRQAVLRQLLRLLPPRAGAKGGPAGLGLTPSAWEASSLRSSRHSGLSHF
Experimental: Assay Buffer: • EP1 Calcium and DP1 cAMP Assays: HBSS plus 20 mM HEPES • EP2 and IP1 cAMP Assays: 1 mM IBMX in HBSS plus 20 mM HEPES
Cells were thawed from frozen cells and resuspended in assay buffer at desired concentrations. cAMP or Calcium assays were performed according to the manufacturer's protocol using Multiscreen™ TR-FRET cAMP 1.0 No Wash Assay Kit or Multiscreen™ Calcium 1.0 No Wash Kit.
Calcium Assay: Cells were seeded in a 384-well plate at an appropriate density. The calcium assay was conducted according to the manufacturer's protocols (Multiscreen Calcium 1.0 No Wash Assay Kit). The calcium dye loading buffer was added to the cells and incubated for 1 hour at 37° C. For agonist mode, cells were injected with Iloprost control agonist or test compound by FLIPR and calcium mobilization was monitored for 180 seconds with compound injected into the wells at the 19th second. Fluorescent emissions were read at 525 nm with excitation at 490 nm in a FLIPR 384 instrument (Molecular Devices).
Calcium Assay: Calcium assay results are expressed as “RFU” as defined in figure below. Data are represented in Mean±SEM. Dose-response curves were fitted using “Sigmoidal dose-response (variable slope)” function in GraphPad Prism 6. EC50 values were calculated based on the fitted curves.
Prostaglandin receptor activity assessments with treprostinil and treprostinil analogues have been conducted, and a historical, positive control agonist for these receptors, iloprost (for IP, EP2 and EP1) or PGD2 (for DP1), was also included. These studies used cell lines overexpressing either human IP, EP2 or DP1, or EP1 receptors, and following incubation with varying concentrations of compounds, cAMP levels were measured using Fluorescence Resonance Energy Transfer (FRET). The 665/620 (acceptor/donor emission signals) ratio is inversely proportional to the concentration of cAMP.

[6] = target: T4, prostaglandin D2 (PGD2) receptor 1 (DP1) (Homo sapiens, UniProt Q13258); assay: DP1 receptor cAMP assay (agonist mode); type: cell-based; details: Table 24; relative to treprostinil EC50 values; * partial agonists or ambiguous dose-response curves; image character = too high to realistically calculate
T4 construct: expressed in transfected cells; host or cells: HEK293T
T4 sequence (Q13258 1-359): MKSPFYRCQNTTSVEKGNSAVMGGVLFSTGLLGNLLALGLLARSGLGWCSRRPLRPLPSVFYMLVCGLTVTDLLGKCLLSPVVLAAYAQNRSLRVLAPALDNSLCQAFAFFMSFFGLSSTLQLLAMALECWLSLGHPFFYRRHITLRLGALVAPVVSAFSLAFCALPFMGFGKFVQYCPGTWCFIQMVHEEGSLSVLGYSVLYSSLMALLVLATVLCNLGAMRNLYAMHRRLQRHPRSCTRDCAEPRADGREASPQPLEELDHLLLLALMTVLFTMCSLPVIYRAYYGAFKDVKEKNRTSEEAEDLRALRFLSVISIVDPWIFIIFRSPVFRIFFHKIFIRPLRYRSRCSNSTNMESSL
Experimental: as §1, §2

[7] = human, 1 μM
Experimental: For each of the test articles, 495 μL of skin homogenate was added to triplicate centrifuge tubes. To each tube, 5 μL of a 100 μM solution of test article was added, for a final test article dosing concentration of 1 μM. The tubes were placed onto a Thermomixer and maintained at 37° C. with gentle shaking for the duration of the experiment. At each time point (0, 30, 60, and 120 minutes), a 100 μL aliquot was removed from each tube and combined with 200 μL of acetonitrile to stop the stability reaction. The tubes were mixed and centrifuged at 3000 rpm for 10 minutes. Aliquots of supernatant were removed and diluted 1:1 with distilled water containing internal standard (2 μM treprostinil-d4). Calibration standards for the treprostinil analysis were prepared for each test article in a surrogate matrix (supernatant from a mixture of 1:2 human plasma:acetonitrile), at concentrations ranging from 1 μM to 1 nM. Calibration standards were also diluted 1:1 with distilled water containing internal standard.

[8] = male, Beagle, dog, 1 μM, pH 7.4
Experimental: (§3) Mixed-gender human liver microsomes, male Sprague-Dawley rat liver microsomes, and male Beagle dog liver microsomes were purchased from XenoTech. The reaction mixture, minus NADPH, was prepared as described below. […] An aliquot of the reaction mixture (without cofactor) was equilibrated in a shaking water bath at 37° C. for 5 minutes. The reaction was initiated by the addition of cofactor, and the mixture was incubated in a shaking water bath at 37° C. Aliquots (200 μL) were withdrawn at 0, 10, 20, 30, and 60 minutes. Test article samples were immediately combined with 400 μL of ice-cold acetonitrile (ACN) to terminate the reaction. […] The samples were then mixed and centrifuged to precipitate proteins. Aliquots of the supernatant were removed, diluted 1:1 into distilled water containing internal standard, and analyzed by LC-MS/MS against calibration standards prepared in a matched matrix. All samples were analyzed for the dosed prodrugs as well as the drug, treprostinil. The test article concentration was compared to the concentration at time 0 to determine the percent of test article remaining at each time point. Half-lives and clearance were calculated using GraphPad software, fitting to a single-phase exponential decay equation.
Liver Microsomes 0.5 mg/mL
Potassium Phosphate, pH 7.4 100 mM

[9] = male, Sprague-Dawley, rat, 1 μM, pH 7.4
Experimental: as §3
Liver Microsomes 0.5 mg/mL
Potassium Phosphate, pH 7.4 100 mM

[10] = both, human, 1 μM, pH 7.4
Experimental: as §3
Liver Microsomes 0.5 mg/mL
Potassium Phosphate, pH 7.4 100 mM

[11] = Stability and formation of treprostinil in rat liver microsomes; details: male, Sprague-Dawley, pH 7.4
Experimental: as §3
Liver Microsomes 0.5 mg/mL
Potassium Phosphate, pH 7.4 100 mM

[12] = Stability and formation of treprostinil in dog liver microsomes; details: male, Beagle, pH 7.4
Experimental: as §3
Liver Microsomes 0.5 mg/mL
Potassium Phosphate, pH 7.4 100 mM

[13] = Stability and formation of treprostinil in human liver microsomes; details: both, pH 7.4
Experimental: as §3
Liver Microsomes 0.5 mg/mL
Potassium Phosphate, pH 7.4 100 mM

[14] = cited from earlier work

T2 sequence (P43119 whole entry): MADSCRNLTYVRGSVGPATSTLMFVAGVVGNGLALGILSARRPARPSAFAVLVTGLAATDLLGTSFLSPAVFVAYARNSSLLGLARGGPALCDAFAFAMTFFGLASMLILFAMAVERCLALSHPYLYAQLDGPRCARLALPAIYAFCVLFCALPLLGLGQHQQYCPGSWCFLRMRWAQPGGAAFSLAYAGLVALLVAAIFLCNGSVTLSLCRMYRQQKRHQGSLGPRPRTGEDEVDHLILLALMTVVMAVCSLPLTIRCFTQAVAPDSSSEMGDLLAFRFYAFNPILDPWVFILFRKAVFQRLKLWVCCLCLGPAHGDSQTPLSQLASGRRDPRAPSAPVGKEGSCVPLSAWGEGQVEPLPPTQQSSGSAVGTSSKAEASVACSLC
T1 sequence (P43116 whole entry): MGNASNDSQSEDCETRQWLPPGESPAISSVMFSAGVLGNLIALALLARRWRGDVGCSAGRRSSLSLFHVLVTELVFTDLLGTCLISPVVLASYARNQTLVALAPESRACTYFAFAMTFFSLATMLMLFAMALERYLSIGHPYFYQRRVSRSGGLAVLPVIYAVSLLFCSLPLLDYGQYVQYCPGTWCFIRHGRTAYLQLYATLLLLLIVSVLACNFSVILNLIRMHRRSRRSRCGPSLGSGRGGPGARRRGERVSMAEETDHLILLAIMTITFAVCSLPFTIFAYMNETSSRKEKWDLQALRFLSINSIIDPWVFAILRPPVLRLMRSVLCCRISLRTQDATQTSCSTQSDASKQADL

CCCCC[C@@H](CC[C@@H]1[C@H]2Cc3cccc(OCC(=O)O)c3C[C@H]2C[C@H]1O)OC(=O)CC [Prodrug LV, treprostinil side chain propionic ester]
Treprostinil Concentration, 0 min [1]: 0.113 µM | Treprostinil Concentration, 15 min [1]: 0.725 µM | Treprostinil Concentration, 30 min [1]: 0.654 µM | Treprostinil Concentration, 60 min [1]: 0.589 µM | Treprostinil Concentration, 120 min [1]: 0.527 µM | Activity, EP2 Relative to Tre [2]: 50x | Activity, IP Relative to Tre [3]: 54x | Treprostinil Concentration, 0 min [4]: 0.124 µM | Treprostinil Concentration, 15 min [4]: 0.781 µM | Treprostinil Concentration, 30 min [4]: 0.698 µM | Treprostinil Concentration, 60 min [4]: 0.599 µM | Treprostinil Concentration, 120 min [4]: 0.53 µM | Treprostinil Concentration, 0 min [5]: 0.0159 µM | Treprostinil Concentration, 15 min [5]: 0.506 µM | Treprostinil Concentration, 30 min [5]: 0.48 µM | Treprostinil Concentration, 60 min [5]: 0.424 µM | Treprostinil Concentration, 120 min [5]: 0.391 µM | Activity, EP1 Relative to Tre (PGE2 receptor 1 (EP1)): 122x* | Activity, DP1 Relative to Tre [6]: 94x

CCCCC[C@@H](CC[C@@H]1[C@H]2Cc3cccc(OCC(=O)O)c3C[C@H]2C[C@H]1O)OC(C)=O [Prodrug XLIII, 2-(((1R,2R,3aS,9aS)-1-((S)-3-acetoxyoctyl)-2-hydroxy-2,3,3a,4,9,9a-hexahydro-1H-cyclopenta[b]naphthalen-5-yl)oxy)acetic acid]
Treprostinil Concentration, 0 min ([7]; 0 min): 0.0034 µM | Treprostinil Concentration, 30 min ([7]; 30 min): 0.382 µM | Treprostinil Concentration, 60 min ([7]; 60 min): 0.583 µM | Treprostinil Concentration, 120 min ([7]; 120 min): 0.839 µM | Treprostinil Concentration, 0 min ([1]; both, human, 0 min, 1 μM, pH 7.4): 0.00744 µM | Treprostinil Concentration, 15 min ([1]; both, human, 15 min, 1 μM, pH 7.4): 0.573 µM | Treprostinil Concentration, 30 min ([1]; both, human, 30 min, 1 μM, pH 7.4): 0.623 µM | Treprostinil Concentration, 60 min ([1]; both, human, 60 min, 1 μM, pH 7.4): 0.54 µM | Treprostinil Concentration, 120 min ([1]; both, human, 120 min, 1 μM, pH 7.4): 0.507 µM | Activity, EP2 Relative to Tre [2]: 461x | Treprostinil Concentration, 0 min ([8]; 0 min): 0.964 µM | Treprostinil Concentration, 15 min ([8]; 15 min): 0.917 µM | Treprostinil Concentration, 30 min ([8]; 30 min): 0.899 µM | Treprostinil Concentration, 60 min ([8]; 60 min): 0.932 µM | Treprostinil Concentration, 120 min ([8]; 120 min): 0.873 µM | Treprostinil Concentration, 0 min ([9]; 0 min): 0.035 µM | Treprostinil Concentration, 15 min ([9]; 15 min): 0.0741 µM | Treprostinil Concentration, 30 min ([9]; 30 min): 0.111 µM | Treprostinil Concentration, 60 min ([9]; 60 min): 0.145 µM | Treprostinil Concentration, 120 min ([9]; 120 min): 0.206 µM | Activity, IP Relative to Tre [3]: 632x | Treprostinil Concentration, 0 min ([4]; male, Beagle, dog, 0 min, 1 μM, pH 7.4): 0.0381 µM | Treprostinil Concentration, 15 min ([4]; male, Beagle, dog, 15 min, 1 μM, pH 7.4): 0.628 µM | Treprostinil Concentration, 30 min ([4]; male, Beagle, dog, 30 min, 1 μM, pH 7.4): 0.543 µM | Treprostinil Concentration, 60 min ([4]; male, Beagle, dog, 60 min, 1 μM, pH 7.4): 0.446 µM | Treprostinil Concentration, 120 min ([4]; male, Beagle, dog, 120 min, 1 μM, pH 7.4): 0.4 µM | Treprostinil Concentration, 0 min ([5]; male, Sprague-Dawley, rat, 0 min, 1 μM, pH 7.4): 0.00292 µM | Treprostinil Concentration, 15 min ([5]; male, Sprague-Dawley, rat, 15 min, 1 μM, pH 7.4): 0.161 µM | Treprostinil Concentration, 30 min ([5]; male, Sprague-Dawley, rat, 30 min, 1 μM, pH 7.4): 0.266 µM | Treprostinil Concentration, 60 min ([5]; male, Sprague-Dawley, rat, 60 min, 1 μM, pH 7.4): 0.397 µM | Treprostinil Concentration, 120 min ([5]; male, Sprague-Dawley, rat, 120 min, 1 μM, pH 7.4): 0.503 µM | Activity, EP1 Relative to Tre (PGE2 receptor 1 (EP1)): 20x* | Treprostinil Concentration, 0 min ([10]; 0 min): 0.883 µM | Treprostinil Concentration, 15 min ([10]; 15 min): 0.681 µM | Treprostinil Concentration, 30 min ([10]; 30 min): 0.602 µM | Treprostinil Concentration, 60 min ([10]; 60 min): 0.513 µM | Treprostinil Concentration, 120 min ([10]; 120 min): 0.341 µM | Activity, DP1 Relative to Tre [6]: 272x

C[C@]12CC[C@H]3[C@@H](CCC4=CC(=O)CC[C@@]43C)[C@@H]1CC[C@@H]2O [Testosterone, testosterone]
hepatocyte CLint at 1 μM ([1]; both, human, hepatocytes, pH 7.4): 95.9 µL/min/1e6 cells | Half-Life [11]: 1.71 min | microsomal CLint [11]: 809 µL/min/mg | half-life at 1 μM ([4]; male, Beagle, dog, hepatocytes, pH 7.4): 6.5 min | hepatocyte CLint at 1 μM ([5]; male, Sprague-Dawley, rat, hepatocytes, pH 7.4): 448 µL/min/1e6 cells | Half-Life [12]: 37.7 min | microsomal CLint [12]: 36.8 µL/min/mg | Half-Life [13]: 29.2 min | microsomal CLint [13]: 47.5 µL/min/mg

CCCCC[C@H](O)CC[C@@H]1[C@H]2Cc3cccc(OCC(=O)OCC)c3C[C@H]2C[C@H]1O [Treprostinil ethyl ester]
Activity, EP2 Relative to Tre [2]: 11x | Activity, IP Relative to Tre [3]: 35x | Activity, EP1 Relative to Tre (PGE2 receptor 1 (EP1)): 30x | Activity, DP1 Relative to Tre [6]: 18x

CCCCC[C@H](O)CC[C@@H]1[C@H]2Cc3cccc(OCC(=O)O)c3C[C@H]2C[C@H]1O [treprostinil, Treprostinil]
First-pass effect ([14]; oral delivery, animal studies): approximately 60% | Half-life once absorbed ([14]; regardless of the route of administration): about 1 hour
